Patent US20260133193A1, “COMPOSITIONS AND METHODS FOR TREATING INFLAMMATORY DISEASES” (University of Washington, priority 2018, published 2026)

System: FcgRIIA on neutrophils
Experiment: FcgRIIA shedding, fluorimetry of shed antibody-FcgRIIA complexes in supernatant
Assay type: cell-based, human
Details: pre-labeled neutrophils, R848 stimulation
Experimental: To assess if reduction in FcgRIIA cell surface expression was dependent on proteolytic cleavage or internalization of the receptor, we analyzed total FcgRIIA expression in fixed permeabilized neutrophils. Specifically, neutrophils were activated with R848 and FcgRIIA levels analyzed in permeabilized cells by flow cytometry. The experiment was repeated five times and compared using paired t test (P=0.0075). […] Specifically, FcgRIIA cell surface expression was analyzed by flow cytometry using two antibodies, FUN2 and IV.3, in non-stimulated and R848-stimulated neutrophils. The experiment was repeated six times; combined results were compared using paired t test (P<0.0001). […] For this experiment, neutrophils were labeled with FITC-conjugated IV.3 anti-FcgRIIA or anti-FUN-2 antibodies and the shed antibody-FcgRIIA complex quantified by fluorimetry following R848 stimulation with or without prior addition of a pan-protease inhibitor. […]
For detection of shed FcgRIIA, neutrophils were pre-labeled with FITC-conjugated anti-CD32A antibody IV.3 (Stemcell Technologies) or FITC-conjugated anti-CD32A antibody FUN-2 (Biolegend), and washed extensively prior to activation with R848. Cell free supernatant was analyzed for shed FcgRIIA-anti-CD32A-FITC complexes by flourimetry (Synergy 2, BioTek) using anti-CD32A antibodies as a standard curve. […]

**Q.** For `CCOCc1nc2c(N)nc3ccccc3c2n1CC(C)(C)O` [R848], which “cell-free FcgRIIA-IV.3 (anti-CD32A) complexes in supernatant” value is on record?
**A.** detected in increased amounts in the cell-free supernatant
